Test results: patent US8507498B2, “4, 6-disubstituted aminopyrimidine derivatives as inhibitors of protein kinases” (Ingenium Pharmaceuticals GmbH, priority 2007, dated 2013)
Entries after “also recorded” stand apart in the source; their conditions may differ.

What was measured:
IL6 = test: LPS in vivo assay, serum IL6 ELISA; settings: LPS mice, 10 or 30 mg/kg single p.o. 30 min prior to LPS, blood 90 min after LPS, vs vehicle
Procedure: (§1) For the LPS induced model of septic shock, mice receive an intraperitoneal (i.p.) injection of 30 μg bacterial Lipopolysaccharide (LPS; L2630 SIGMA) in saline. Said LPS-mediated initiation of the inflammatory signalling cascade results in increasing blood serum concentrations of cytokines such as e.g. TNFα, IL-6 and IL1β. Blood can be taken from these animals at defined time points. Thereafter, serum will be separated and the samples can be stored at −80° C. until cytokine concentrations are measured using commercial ELISA assays. (AL Moreira et al., Braz J Med Biol Res 1997; 30:1199-1207).
(§2) Wildtype mice (strain C3HeB/FeJ) (age, sex and weight matched) were injected with 30 μg LPS (SIGMA) intraperitoneally. 90 minutes after LPS administration these animals were anaesthetized with 0.1 ml/10 g bodyweight Ketamine-Rompun (50/20 mg/ml) and blood for serum preparation was taken via cardiac puncture.
(§3) Pharmacological treatment groups (n=4) of LPS mice received per os (p.o.) injections of CDK-inhibiting compounds or the vehicle (negative control), respectively. In particular, compounds 1, 5, 10, and 84 were administered.
(§4) 10 or 30 mg/kg (compound per bodyweight) of a CDK inhibitor, dissolved in 20% DMSO, 5% Tween 80, 10% Tris 1M pH8, 20% PEG400, 45% PBS was administered as a single p.o. dosage 30 min prior to LPS stimulation. Vehicle control was administered in the same manner.
(§5) 90 minutes (min) after LPS stimulation, blood samples were taken from the mice. Previously, the 90 min time point had been identified as the peak of TNF alpha expression in this animal model by a time course experiment.
(§6) Blood samples (˜500 μl/animal) from the LPS animals were incubated on wet ice for 30 min after cardiac puncture. Afterwards the samples were centrifuged for 15 min at 13.000 rpm. Serum was separated from the clot and stored frozen at −80° C.
(§7) Serum concentrations of TNF alpha and IL6 within the samples were measured by using commercial ELISA Kits (Natutec) according to the manufacturers instructions.

TNFα = test: LPS in vivo assay, serum TNF alpha ELISA; settings: LPS mice, 10 or 30 mg/kg single p.o. 30 min prior to LPS, blood 90 min after LPS, vs vehicle
Procedure: as §1, §2, §3, §4, §5, §6, §7

[1] = test system: TNFα expression in LPS-induced THP-1 macrophages; test: In vitro THP-1 assay, TNFα ELISA; assay type: cell-based, human; settings: 0.5 to 5 μM, 60 min pre-incubation, vs DMSO
Procedure: (§8) THP-1 cells are grown in modified RPMI-1640 medium (ATCC, Cat. No. 30-2001) supplemented with 10% FCS and 1% Pen/Strep. For cytokine inhibition assays, cells are seeded at a density of 5×10^5 cells/ml into 6-well plates in standard growth medium supplemented with 100 ng/ml PMA (Sigma, P1585) to induce differentiation into macrophage-like cells. After 24 hours, the medium is replaced with standard growth medium (without PMA) and the cells are incubated for another 48 hours to complete differentiation. […] Cells are incubated for 60 min with compounds prior to stimulation with 100 ng/ml LPS (Sigma, L2630) for another 4-48 hours. Supernatants are collected and assayed immediately for cytokine expression, e.g. for TNFα, IL-6 and IL-1b using commercially available sandwich ELISA assays (eBioscience, Cat. No 88-7346, 88-7066, 88-7010) or kept frozen at […] until evaluation. Concentrations of TNFα, IL6 and IL1β within the cell culture supernatants are measured by using commercial ELISA Kits (eBioscience) according to the manufacturer's instructions. CDK-inhibitory compounds # 1, 2, 3, 5, 16, 18, 19 and 32 were administered to differentiated THP-1 cells in triplicates as described above (see section 2.). After 60 min of pre-incubation with test or reference compound (SB203580, a p38 inhibitor and BMS345541, an IKK-inhibitor) alone, cells were stimulated with LPS. After incubation for 4-48 h, supernatants were collected and ELISA based determinations of cytokine supernatant concentrations were performed as described in section 3, supra.

[2] = test system: IL6 expression in LPS-induced THP-1 macrophages; test: In vitro THP-1 assay, IL6 ELISA; assay type: cell-based, human; settings: 0.5 to 5 μM, 60 min pre-incubation, vs DMSO
Procedure: as §8

melting point	Structure (SMILES)	inhibition of TNFα expression in the supernatant [1]	inhibition of IL6 expression in the supernatant [2]	also measured
221.5 to 223 °C	NS(=O)(=O)Cc1cccc(Nc2cc(-c3cccc(C(F)(F)F)c3)ncn2)c1 [Compound 63, {3-[6-(3-Trifluoromethyl-phenyl)-pyrimidin-4-ylamino]-phenyl}-methanesulfonamide]	–	–	–
–	COc1ccccc1-c1cc(Nc2cccc(CS(=O)(=O)NC(C)C)c2)ncn1 [Compound 10, N-Isopropyl-C-{3-[6-(2-methoxy-phenyl)-pyrimidin-4-ylamino]-phenyl}-methanesulfonamide]	–	–	IL6 protein concentration in the blood serum (IL6): significant repressive effect; TNFα protein concentration in the blood serum (TNFα): significant repressive effect
214 to 216.1 °C	CS(=O)(=O)c1cccc(Nc2cc(-c3ccccc3O)ncn2)c1 [Reference Example 49, 2-[6-(3-methanesulfonyl-phenylamino)-pyrimidin-4-yl]-phenol]	–	–	–
199 to 205 °C	CS(=O)(=O)c1cccc(Nc2cc(-c3ccccc3OCc3ccccc3)ncn2)c1 [Reference Example 51, [6-(2-benzyloxy-phenyl)-pyrimidin-4-yl]-(3-methanesulfonyl-phenyl)-amine]	–	–	–
168.4 to 169.4 °C	NS(=O)(=O)Cc1cccc(Nc2cc(-c3ccccc3OCC3CCCO3)ncn2)c1 (stereo not drawn) [Compound 82, (3-{6-[2-(tetrahydro-furan-2-ylmethoxy)-phenyl]-pyrimidin-4-ylamino}-phenyl)-methanesulfonamide]	–	–	–
211.7 to 213.1 °C	COc1ccccc1-c1cc(Nc2cccc(CS(N)(=O)=O)c2)nc(N)n1 [Compound 66, {3-[2-amino-6-(2-methoxy-phenyl)-pyrimidin-4-ylamino]-phenyl}-methanesulfonamide]	–	–	–
–	NS(=O)(=O)Cc1cccc(Nc2cc(-c3ccccc3OCc3ccccc3)ncn2)c1 [Compound 32, {3-[6-(2-Benzyloxy-phenyl)-pyrimidin-4-ylamino]-phenyl}-methanesulfonamide]	significant inhibitory effect; also recorded: significant inhibition	significant inhibitory effect; also recorded: significant inhibition	–
202 to 203.5 °C	CCCS(=O)(=O)Nc1cc(Nc2cc(-c3cccc([N+](=O)[O-])c3)ncn2)ccc1C	–	–	–
–	COc1ccccc1-c1cc(Nc2cccc(CS(=O)(=O)NC3CCCC3)c2)ncn1 [Compound 16, N-Cyclopentyl-C-{3-[6-(2-methoxy-phenyl)-pyrimidin-4-ylamino]-phenyl}-methanesulfonamide]	significant inhibitory effect; also recorded: significant inhibition	significant inhibitory effect; also recorded: significant inhibition	–
–	COc1cc(F)ccc1-c1cc(Nc2cccc(CS(N)(=O)=O)c2)ncn1 [Compound 3, {3-[6-(4-Fluoro-2-methoxy-phenyl)-pyrimidin-4-ylamino]-phenyl}-methanesulfonamide]	significant inhibitory effect; also recorded: significant inhibition	significant inhibitory effect; also recorded: significant inhibition	–
171 to 172 °C	CNS(=O)(=O)Cc1cccc(Nc2cc(-c3ccccc3COC)ncn2)c1 [Compound 80, C-{3-[6-(2-methoxymethyl-phenyl)-pyrimidin-4-ylamino]-phenyl}-N-methyl-methanesulfonamide]	–	–	–
–	CCOc1ccccc1-c1cc(Nc2cccc(CS(=O)(=O)NC3CC3)c2)ncn1 [Compound 18, N-Cyclopropyl-C-{3-[6-(2-ethoxy-phenyl)-pyrimidin-4-ylamino]-phenyl}-methanesulfonamide]	significant inhibitory effect; also recorded: significant inhibition	significant inhibitory effect; also recorded: significant inhibition	–
–	COc1ccccc1-c1cc(Nc2cccc(CS(=O)(=O)CCCN(C)C)c2)ncn1 [Compound 84, [3-(3-Dimethylamino-propane-1-sulfonylmethyl)-phenyl]-[6-(2-methoxy-phenyl)-pyrimidin-4-yl]-amine]	–	–	IL6 protein concentration in the blood serum (IL6): significant repressive effect; TNFα protein concentration in the blood serum (TNFα): significant repressive effect
141 to 142.9 °C	COCCOc1ccccc1-c1cc(Nc2cccc(CS(C)(=O)=O)c2)ncn1 [Compound 57, (3-Methanesulfonylmethyl-phenyl)-{6-[2-(2-methoxy-ethoxy)-phenyl]-pyrimidin-4-yl}-amine]	–	–	–
149.2 to 150.8 °C	COCCCNS(=O)(=O)Cc1cccc(Nc2cc(-c3ccccc3OC)ncn2)c1 [Compound 33, C-{3-[6-(2-Methoxy-phenyl)-pyrimidin-4-ylamino]-phenyl}-N-(3-methoxy-propyl)-methanesulfonamide]	–	–	–
–	CCOc1ccccc1-c1cc(Nc2cccc(CS(=O)(=O)NC(C)(C)C)c2)ncn1 [Compound 19, N-tert-Butyl-C-{3-[6-(2-ethoxy-phenyl)-pyrimidin-4-ylamino]-phenyl}-methanesulfonamide]	significant inhibitory effect; also recorded: significant inhibition	significant inhibitory effect; also recorded: significant inhibition	–
–	CC(C)Oc1ccccc1-c1cc(Nc2cccc(CS(N)(=O)=O)c2)ncn1 [Compound 5, {3-[6-(2-Isopropoxy-phenyl)-pyrimidin-4-ylamino]-phenyl}-methanesulfonamide]	–	significant inhibition	IL6 protein concentration in the blood serum (IL6): significant repressive effect; TNFα protein concentration in the blood serum (TNFα): significant repressive effect
209 to 211.1 °C	COCCOc1ccccc1-c1cc(Nc2cccc(CS(N)(=O)=O)c2)nc(C)n1 [Compound 83, (3-{6-[2-(2-methoxy-ethoxy)-phenyl]-2-methyl-pyrimidin-4-ylamino}-phenyl)-methanesulfonamide]	–	–	–
236.3 to 238.6 °C	CCOc1ccccc1-c1cc(Nc2cccc(CS(N)(=O)=O)c2)ncn1 [Compound 1, {3-[6-(2-Ethoxy-phenyl)-pyrimidin-4-ylamino]-phenyl}-methanesulfonamide]	significant inhibitory effect; also recorded: significant inhibition	significant inhibitory effect; also recorded: significant inhibition	IL6 protein concentration in the blood serum (IL6): significant repressive effect; TNFα protein concentration in the blood serum (TNFα): significant repressive effect
160 to 162.6 °C	CS(=O)(=O)Cc1cccc(Nc2cc(-c3ccccc3OCC3CCCO3)ncn2)c1 (stereo not drawn) [Compound 64, (3-methanesulfonylmethyl-phenyl)-{6-[2-(tetrahydro-furan-2-ylmethoxy)-phenyl]-pyrimidin-4-yl}-amine]	–	–	–
